In patent US7074761B1, “Peptides and production and use thereof” (Takeda Chemical Ind., Ltd., priority 1996, dated 2006):
Where a SMILES comes first, the peptide text is derived from it. Bridges are numbered along the chain shown (N, C = ends).

Molecular target: T1, human SSTR5 (Homo sapiens, UniProt P35346)
T1 construct: expressed in transfected cells; host or cells: CHO(dhfr-) cells, clone SSTR5-32-4, plasmid pA-1-11-SSTR5 (vector pAKKO-111)
Test: [125I]-somatostatin binding inhibition, SSTR5 CHO cell membrane fraction
Conditions: 25° C., 60 minutes
Experimental: CHO(dhfr^−) cells (1×10^6 cells) were cultured on HAM F12 medium containing 10% fetal bovine serum in a dish with a diameter of 8 cm for 24 hours. Into these cells was introduced 10 μg of the human SSTR5 cDNA expression plasmid pA-1-11-SSTR5 obtained as described above in (2) by the calcium phosphate method (Cell Phect Transfection Kit; Pharmacia). At 24 hours after transfection, the medium was exchanged for DMEM containing 10% dialyzed fetal bovine serum, and cells forming a colony on this medium (namely DHFR^+ cells) were selected. Further, the cells selected were treated by the limiting dilution method for cloning from a single cell, and the cells thus cloned were measured for their somatostatin receptor protein expression ability by the binding assay described in Reference Example 1 (3). In this manner, a cell line with high somatostatin-binding activity. SSTR5-32-4, was selected. […]
The membrane fractions prepared in Reference Example 6 were each diluted to 3 μg/ml with assay buffer. […] After filtration, the radioactivity of [^125I]-somatostatin remaining on the filter paper was measured. For each test substance, the binding inhibition percentage (%) was calculated according to the formula: PBM=(B−NSB)/(B0−NSB)×100 (where PBM: percent maximum binding; B: radioactivity when the test sample is added; B0: maximum bound radioactivity; NSB: non-specifically bound radioactivity). […]

T1 sequence (P35346 whole entry): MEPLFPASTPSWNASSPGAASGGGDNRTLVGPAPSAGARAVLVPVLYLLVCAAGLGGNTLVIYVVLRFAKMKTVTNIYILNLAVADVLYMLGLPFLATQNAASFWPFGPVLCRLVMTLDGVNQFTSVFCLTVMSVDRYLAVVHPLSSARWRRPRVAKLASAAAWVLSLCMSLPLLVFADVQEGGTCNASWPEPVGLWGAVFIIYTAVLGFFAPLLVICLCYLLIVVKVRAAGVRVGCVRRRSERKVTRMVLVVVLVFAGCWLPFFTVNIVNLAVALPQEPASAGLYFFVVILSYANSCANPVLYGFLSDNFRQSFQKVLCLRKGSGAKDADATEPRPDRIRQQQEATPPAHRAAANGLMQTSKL

- IC50: 600 pM
Compound: CSCC[C@H](N)C(=O)N1CCC[C@H]1C(=O)N[C@H]1CSSC[C@@H](C(=O)N[C@@H](CCCCN)C(=O)O)NC(=O)[C@H](CO)NC(=O)[C@H](CO)NC(=O)[C@H](Cc2ccccc2)NC(=O)[C@H]([C@@H](C)O)NC(=O)[C@H](CCCCN)NC(=O)[C@H](Cc2c[nH]c3ccccc23)NC(=O)[C@H](Cc2ccccc2)NC(=O)[C@H](Cc2ccccc2)NC(=O)[C@H](CC(N)=O)NC(=O)[C@H](CCCNC(=N)N)NC1=O [hCS-15] (H-MPCRNFFWKTFSSCK-OH; disulfide 3-14; N-terminus and C-terminus assumed)
